One may read the MIC as the smallest concentration in the dilution series that meets the test's criterion for growth inhibition.

The test system of one experiment is Pseudomonas aeruginosa. In words: minimum inhibitory concentration, broth two-fold serial dilution test, Pseudomonas aeruginosa. In kind it is cell-based, Pseudomonas aeruginosa ATCC 15442. As to conditions: for MIC (TSB media) Psae: Pseudomonas aeruginosa ATCC 15442, lowest concentration with complete inhibition of growth; for MIC: Pseudomonas aeruginosa, ATCC15442, Pseudomonas aeruginosa ATCC 15442, TSB media, lowest concentration with complete inhibition of growth, read-out: MIC (TSB media) Psae. On the procedure:
(§1) Bactericidal and fungicidal evaluations of the compounds of Example 5 were carried out.
(§2) A minimum inhibitory concentration (MIC) value is obtained using a broth, two-fold serial dilution test performed as follows: A stock solution or dispersion of the test compound, typically at a concentration of 1%, is made in a 5:3:2 solvent solution of acetone, methanol, and water. A volume of the stock solution is dispensed into culture media to give an initial starting test concentration of 500 ppm compound.
(§3) When the test is ready to be done, each vessel in the dilution series, except the first vessel, contains an equal volume of compound free broth. The first vessel contains twice the volume of broth with the starting concentration of test compound. One half of the broth from the first vessel is transferred to the second vessel. After being mixed, one half the resulting volume is removed from the second vessel and transferred to the third vessel. The entire cycle is repeated sufficiently to give a series of concentrations amounting to 500, 250, 125, 63, 31, 16, 8 and 4, 2, 1, 0.5, 0.25 ppm respectively.
(§4) Each vessel is then inoculated with a cell suspension of the appropriate test organism. Bacteria are grown in broth, fungi or agar slants for a time and at a temperature appropriate to the species being tested, and algae are a mixture of green algae and blue-green bacteria grown in a nutrient media. At the end of the growth period, in the case of bacteria, the broth is vortexed to disperse the cells.
(§5) The vessels are then incubated at the appropriate temperature. After the incubation, the vessels are examined for growth/no growth. The minimum inhibitory concentration (MIC) is defined as the lowest concentration of compounds that results in complete inhibition of growth of the test organism.
1. Pseudomonas aeruginosa

The subject of a further experiment is Rhodotorula rubra. In words: minimum inhibitory concentration, broth two-fold serial dilution test, Rhodotorula rubra. It is filed as cell-based. Conditions: lowest concentration with complete inhibition of growth; for MIC: Rhodotorula, TSB media, read-out: MIC (TSB media) Rrub. On the procedure: as §1, §2, §3, §4
(§6) In the case of fungi, the spores are harvested by pipetting water onto the slant and dislodging the spores with a sterile loop. The cell/spore suspension is standardized by controlling incubation time, temperature, and the volume of the diluent. The suspension is then used to inoculate the vessels containing the broth compound.
as §5
4. Rhodotorula rubra Rrub

In the next experiment the test system is Aspergillus niger. In words: minimum inhibitory concentration, broth two-fold serial dilution test, Aspergillus niger. It is filed as cell-based, Aspergillus niger ATCC 6275. Conditions: for MIC (TSB media) Anig: Aspergillus niger ATCC 6275, lowest concentration with complete inhibition of growth; for MIC: Aspergillus niger, ATCC6275, Aspergillus niger ATCC 6275, TSB media, lowest concentration with complete inhibition of growth, read-out: MIC (TSB media) Anig. On the procedure: as §1, §2, §3, §4, §6, §5
3. Aspergillus niger 6275 Anig

Another experiment has as its system Escherichia coli. In words: minimum inhibitory concentration, broth two-fold serial dilution test, Escherichia coli. In kind it is cell-based, Escherichia coli ATCC 11229. Conditions: for MIC (TSB media) Ecol: Escherichia coli ATCC 11229, lowest concentration with complete inhibition of growth; for MIC: Escherichia coli, ATCC11229, Escherichia coli ATCC 11229, TSB media, lowest concentration with complete inhibition of growth, read-out: MIC (TSB media) Ecol. On the procedure:
as §1, §2, §3, §4, §5

For `CCCCCCCCCCCCCC[N+]1(CC#CBr)CCCCC1` [Compound 17, 1-tetradecyl-1-(3-bromopropargyl)-piperidinium benzenesulfonate], the “MIC (TSB media) Psae” value in the experiment on Pseudomonas aeruginosa amounted to 32 ppm. The “MIC (TSB media) Rrub” value against Rhodotorula rubra is reported as less than 4 ppm. The “MIC (TSB media) Anig” value against Aspergillus niger was less than 4 ppm. Moreover, the “MIC (TSB media) Ecol” value in the experiment on Escherichia coli is less than 4 ppm.
`CCCCCCCCCCCCCC[N+]1(CC#CBr)CCCCC1` [Compound 6, 1-tetradecyl-1-(3-bromopropargyl)-piperidinium methanesulfonate]: in the experiment on Pseudomonas aeruginosa, the “MIC (TSB media) Psae” value is given as more than 500 ppm. Moreover, the minimum inhibitory concentration (MIC) in the experiment on Rhodotorula rubra and in the experiment with Aspergillus niger was less than 4 µg/mL throughout. The “MIC (TSB media) Ecol” value in the experiment with Escherichia coli was more than 500 ppm.
Turning to `CCCCCCCC[N+](CC#CI)(CCCCCCCC)CCCCCCCC` [Compound 34, reference compound], the MIC is 1.6 µg/mL in the experiment on Pseudomonas aeruginosa, 1.6 µg/mL in the experiment with Rhodotorula rubra, 1.6 µg/mL with Aspergillus niger and more than 500 µg/mL with Escherichia coli.
For the molecule `CCCCCCCCCCCCCC[N+]1(CC#CI)CCCCC1` [Compound 33, reference compound], the minimal inhibitory concentration (MIC) in the experiment with Pseudomonas aeruginosa came out at 125 µg/mL; in the experiment on Rhodotorula rubra it was 2 µg/mL; in the experiment on Aspergillus niger, 4 µg/mL; in the experiment with Escherichia coli, 4 µg/mL.
With `CCCCCCCCCCCCCC[N+]1(CC#CBr)CCOCC1` [Compound 4, 1-tetradecyl-1-(3-bromopropargyl)-morpholinium methanesulfonate], the “MIC (TSB media) Psae” value in the experiment on Pseudomonas aeruginosa is on record as 500 ppm. Moreover, in the experiment on Rhodotorula rubra, the “MIC (TSB media) Rrub” value is given as less than 4 ppm. In addition, the “MIC (TSB media) Anig” value against Aspergillus niger is given as less than 4 ppm. The “MIC (TSB media) Ecol” value with Escherichia coli is reported as 32 ppm.

These data come from US5411933A, “Bromopropargyl quarternary ammonium compounds having antimicrobial activity” (Rohm & Haas Company, priority 1994, dated 1995).
